Data: ChEMBL document CHEMBL3232866, “Design of novel potent antihyperlipidemic agents with antioxidant/anti-inflammatory properties: exploiting phenothiazine's strong antioxidant activity” (J Med Chem, 2014)
Active and inactive are the calls of the source. The rule behind the calls is not given here.

Columns and labels:
[1] = Antioxidant activity in rat liver microsome membrane assessed as inhibition of lipid peroxidation after 45 mins by TBARS-based spectrophotometric assay; type: functional, microsomes
[2] = test system: Radical scavenging activity; test: Antioxidant activity assessed as DPPH radical scavenging activity up to 50 uM measured within 15 mins; type: functional
[3] = test system: Radical scavenging activity; test: Antioxidant activity assessed as DPPH radical scavenging activity after 30 mins; type: functional
[4] = species on record: Homo sapiens; test: Antioxidant activity against CuSO4-induced human LDL oxidation assessed as prolongation of lag time by spectrophotometric analysis; type: functional
[5] = species on record: Homo sapiens; test: Antioxidant activity against CuSO4-induced human LDL oxidation assessed as inhibition of rate of conjugate diene formation at 1 uM by spectrophotometric analysis; type: functional
[6] = species on record: Homo sapiens; test: Antioxidant activity against CuSO4-induced human LDL oxidation assessed as lag time at 0.10 uM by spectrophotometric analysis (reference value: 122 mins); type: functional
[7] = species on record: Homo sapiens; test: Antioxidant activity against CuSO4-induced human LDL oxidation assessed as lag time at 0.50 uM by spectrophotometric analysis (reference value: 122 mins); type: functional
[8] = species on record: Homo sapiens; test: Antioxidant activity against CuSO4-induced human LDL oxidation assessed as delta-lag time at 0.50 uM by spectrophotometric analysis; type: functional
[9] = species on record: Homo sapiens; test: Antioxidant activity against CuSO4-induced human LDL oxidation assessed as delta-lag time at 0.10 uM by spectrophotometric analysis; type: functional
[10] = species on record: Homo sapiens; test: Antioxidant activity against CuSO4-induced human LDL oxidation assessed as increase in lag time at 0.50 uM by spectrophotometric analysis; type: functional
[11] = species on record: Homo sapiens; test: Antioxidant activity against CuSO4-induced human LDL oxidation assessed as increase in lag time at 1 uM by spectrophotometric analysis; type: functional
[12] = species on record: Homo sapiens; test: Antioxidant activity against CuSO4-induced human LDL oxidation assessed as increase in lag time at 0.10 uM by spectrophotometric analysis; type: functional
[13] = species on record: Homo sapiens; test: Antioxidant activity against CuSO4-induced human LDL oxidation assessed as inhibition of rate of conjugate diene formation at 0.50 uM by spectrophotometric analysis; type: functional
[14] = species on record: Homo sapiens; test: Antioxidant activity against CuSO4-induced human LDL oxidation assessed as inhibition of rate of conjugate diene formation at 0.10 uM by spectrophotometric analysis; type: functional
[15] = target: T1, Squalene synthase (Rattus norvegicus) (UniProt Q02769); test: (§1) Inhibition of squalene synthase in rat liver microsomes assessed as decrease in conversion of [3H]FPP to squalene
T1 sequence (whole entry): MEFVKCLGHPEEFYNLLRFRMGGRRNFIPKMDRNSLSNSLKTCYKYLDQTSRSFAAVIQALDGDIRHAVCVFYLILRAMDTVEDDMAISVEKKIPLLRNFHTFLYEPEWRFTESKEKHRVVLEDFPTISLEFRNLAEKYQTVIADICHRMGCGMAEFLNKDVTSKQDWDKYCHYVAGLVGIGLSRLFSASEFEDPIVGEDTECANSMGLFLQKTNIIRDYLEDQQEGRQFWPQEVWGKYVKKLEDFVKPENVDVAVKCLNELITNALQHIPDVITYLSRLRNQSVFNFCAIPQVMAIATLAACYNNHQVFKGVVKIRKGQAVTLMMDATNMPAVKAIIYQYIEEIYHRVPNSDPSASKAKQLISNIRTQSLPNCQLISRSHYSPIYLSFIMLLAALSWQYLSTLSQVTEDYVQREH

[16] = target: T2, Squalene synthase (Rattus norvegicus, UniProt Q02769); test: as §1
T2 sequence (Q02769 whole entry): T1 sequence (whole entry)

[17] = target: T3, Prostaglandin G/H synthase 1 (Bos taurus) (UniProt O62664); test: Inhibition of bovine COX-1 assessed as PGF2-alpha formation using arachidonic acid as substrate at 20 uM by enzyme immunoassay
T3 sequence (whole entry): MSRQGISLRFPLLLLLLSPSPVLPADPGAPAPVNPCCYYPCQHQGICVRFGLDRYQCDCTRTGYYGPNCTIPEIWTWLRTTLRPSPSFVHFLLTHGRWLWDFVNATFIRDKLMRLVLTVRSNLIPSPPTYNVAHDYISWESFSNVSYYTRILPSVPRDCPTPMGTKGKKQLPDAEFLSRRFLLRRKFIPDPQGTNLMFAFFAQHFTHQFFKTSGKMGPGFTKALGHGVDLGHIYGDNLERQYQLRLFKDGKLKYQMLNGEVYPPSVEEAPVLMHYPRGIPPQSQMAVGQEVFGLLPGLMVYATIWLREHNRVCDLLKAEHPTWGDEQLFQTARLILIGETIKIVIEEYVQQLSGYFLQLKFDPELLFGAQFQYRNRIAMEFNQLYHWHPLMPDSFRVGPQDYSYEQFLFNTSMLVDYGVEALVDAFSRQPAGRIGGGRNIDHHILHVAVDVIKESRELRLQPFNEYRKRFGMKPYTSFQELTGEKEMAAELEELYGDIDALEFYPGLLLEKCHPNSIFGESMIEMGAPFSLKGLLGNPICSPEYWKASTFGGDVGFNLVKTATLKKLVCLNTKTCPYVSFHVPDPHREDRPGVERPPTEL

[18] = test system: Glycine max; test: Inhibition of soybean lipoxygenase using sodium linoleate as substrate up to 100 uM measured for 6 mins
[19] = test system: Mus musculus; test: In vivo antiinflammatory activity in mouse assessed as decrease in carrageenan-induced paw edema at 0.30 mmol/kg, ip administered immediately after carrageenan injection measured after 3.5 hrs; type: functional
[20] = test system: Rattus norvegicus; test: In vivo antidyslipidemic activity against Triton WR 1339-induced hyperlipidemic Wistar rat model assessed as decrease in total cholesterol level in plasma at 56 umol/kg, ip administered as single dose 1 hr after Triton WR 1339 challenge measured after 24 hrs; type: functional
[21] = test system: Rattus norvegicus; test: In vivo antidyslipidemic activity against Triton WR 1339-induced hyperlipidemic Wistar rat model assessed as decrease in LDL-cholesterol level in plasma at 56 umol/kg, ip administered as single dose 1 hr after Triton WR 1339 challenge measured after 24 hrs; type: functional
[22] = test system: Rattus norvegicus; test: In vivo antidyslipidemic activity against Triton WR 1339-induced hyperlipidemic Wistar rat model assessed as decrease in triglyceride level in plasma at 56 umol/kg, ip administered as single dose 1 hr after Triton WR 1339 challenge measured after 24 hrs; type: functional
[23] = test system: Mus musculus; test: Antidyslipidemic activity in high-fat diet (35.5% w/w fat) fed SKH-2 mouse assessed as decrease in total cholesterol level in plasma at 56 umol/kg, ip bid for 28 days measured on day 28; type: functional; conditions: SKH-2, Plasma, 672 h
[24] = test system: Mus musculus; test: Antidyslipidemic activity in high-fat diet (35.5% w/w fat) fed SKH-2 mouse assessed as decrease in LDL level in plasma at 56 umol/kg, ip bid for 28 days measured on day 28; type: functional; conditions: SKH-2, Plasma, 672 h
[25] = test system: Mus musculus; test: Antidyslipidemic activity in high-fat diet (35.5% w/w fat) fed SKH-2 mouse assessed as HDL level in plasma at 56 umol/kg, ip bid for 28 days measured on day 28; type: functional, organism-based
[26] = test system: Mus musculus; test: Antidyslipidemic activity in high-fat diet (35.5% w/w fat) fed SKH-2 mouse assessed as triglyceride level in plasma at 56 umol/kg, ip bid for 28 days measured on day 28; type: functional, organism-based
[27] = test system: Mus musculus; test: Antidyslipidemic activity in high-fat diet (35.5% w/w fat) fed SKH-2 mouse assessed as HDL/LDL ratio in plasma at 56 umol/kg, ip bid for 28 days measured on day 28 (reference value: 0.5 no unit); type: functional
[28] = test system: Mus musculus; test: In vivo antioxidant activity in high-fat diet (35.5% w/w fat) fed SKH-2 mouse assessed as reduction in malondialdehyde level in plasma at 56 umol/kg, ip bid for 28 days measured on day 28; type: functional; conditions: SKH-2, Plasma, 672 h
[29] = test system: Mus musculus; test: Effect on body weight in high-fat diet (35.5% w/w fat) fed SKH-2 mouse at 56 umol/kg, ip bid for 28 days; type: ADME, organism-based; conditions: in vivo, 672 h
[30] = test system: Mus musculus; test: Effect on food intake high-fat diet fed SKH-2 mouse at 56 umol/kg, ip bid for 28 days; type: ADME, organism-based; conditions: in vivo, 672 h
[31] = test system: Mus musculus; test: Effect on blood glucose level in high-fat diet (35.5% w/w fat) fed SKH-2 mouse at 56 umol/kg, ip bid for 28 days; type: ADME, organism-based; conditions: in vivo, 672 h
[32] = test system: Mus musculus; test: Toxicity in high-fat diet (35.5% w/w fat) fed SKH-2 mouse at 56 umol/kg, ip bid for 28 days by macroscopic analysis; type: organism-based; conditions: in vivo, 672 h

**Q.** Which IC50 [1] does the source give for `CN1CC(O)(c2ccc3c(c2)Nc2ccccc2S3)OC2CCCCC21` (racemic) here?
**A.** 0.93 µM

**Q.** What about the Activity [2] of the same compound?
**A.** Active

**Q.** What about the IC50 [3] of the same compound?
**A.** 188 µM

**Q.** What about the Activity [4] of the same compound?
**A.** Dose-dependent effect

**Q.** And the inhibition [5]?
**A.** 100%

**Q.** What about the TIME [6] of the same compound?
**A.** 1.82 h

**Q.** And the TIME [7]?
**A.** 3.33 h

**Q.** And the TIME [8]?
**A.** 1.3 h

**Q.** And the TIME [9]?
**A.** -0.217 h

**Q.** And the Activity [10]?
**A.** 64%

**Q.** What about the Activity [11] of the same compound?
**A.** 100%

**Q.** What about the Activity [12] of the same compound?
**A.** 0%

**Q.** And the inhibition [13]?
**A.** 41%

**Q.** And the inhibition [14]?
**A.** 0%

**Q.** And the inhibition [15]?
**A.** Dose-dependent effect

**Q.** And the IC50 [16]?
**A.** 11.9 µM

**Q.** And the inhibition [17]?
**A.** 55%

**Q.** And the inhibition [18]?
**A.** inactive

**Q.** What about the inhibition in vivo at 300 µmol/kg [19] of the same compound?
**A.** 41%

**Q.** And the inhibition in vivo at 56 µmol/kg [20]?
**A.** 50%

**Q.** And the inhibition in vivo at 56 µmol/kg [21]?
**A.** 68%

**Q.** And the inhibition in vivo at 56 µmol/kg [22]?
**A.** 77%

**Q.** What about the inhibition in vivo at 56 µmol/kg [23] of the same compound?
**A.** 54%

**Q.** And the inhibition in vivo at 56 µmol/kg [24]?
**A.** 76%

**Q.** And the Activity [25]?
**A.** inactive

**Q.** What about the Activity [26] of the same compound?
**A.** inactive

**Q.** And the Ratio [27]?
**A.** 1.7

**Q.** What about the inhibition in vivo at 56 µmol/kg [28] of the same compound?
**A.** 38%

**Q.** What about the Activity [29] of the same compound?
**A.** Non-toxic

**Q.** And the Activity [30]?
**A.** Non-toxic

**Q.** And the Activity [31]?
**A.** Non-toxic

**Q.** What about the Activity [32] of the same compound?
**A.** Non-toxic
